TGI and GI50 data for 17 compounds are collected here from PubChem BioAssay (NCI).

Some test systems named below: MALME-3M melanoma; HCT-15 colon; RXF 393 renal; SNB-19 CNS; KM12 colon; HOP-62 NSCLC; MDA-MB-231 breast; PC-3 prostate; T-47D breast; MCF7 breast.
Common to all, as to test: growth of human tumour cells (NCI), 48 h

The structures appear in SMILES notation. Where “and” joins values, the source holds several entries; their conditions need not be identical. Equal values may be shown once.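 Test compounds were applied to cells in 96-well plates for 48 hours at 5 doses. GI50 is the concentration that inhibits growth by half. Definition used: TGI = concentration required for complete inhibition of growth.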 Some results are limits rather than exact numbers.

As to `CSCSCC(CO)NC(=O)/C=C/c1c(C)[nH]c(=O)[nH]c1=O` (stereo unspecified), the TGI in the test with MALME-3M melanoma, in the test with HCT-15 colon, in the test with RXF 393 renal, with SNB-19 CNS and in the test on KM12 colon was more than 100 µM throughout.
For the compound `O=C(CC(C(=O)c1ccsc1)c1cccs1)c1cccs1` (stereo unspecified), the TGI in the test on MALME-3M melanoma, in the test on HOP-62 NSCLC, with HCT-15 colon, in the test on RXF 393 renal and with SNB-19 CNS was more than 100 µM each time.
`C#Cc1c(C)c(/C=C/C(C)=C\C(=O)OC)n(C)c1C`: the TGI in the test on MALME-3M melanoma, in the test with HOP-62 NSCLC, in the test on HCT-15 colon, in the test on SNB-19 CNS and with KM12 colon was more than 100 µM throughout.
As to `CCN(CC)C(=O)Cc1[nH][nH]c(=O)c1C(=O)N(CC)CC`, the TGI in the test on MALME-3M melanoma, in the test with HOP-62 NSCLC, in the test on HCT-15 colon, in the test with RXF 393 renal, in the test on SNB-19 CNS and in the test with KM12 colon was more than 100 µM throughout.
With `C=C(C)[C@@H]1CC[C@]2(C(=O)O)CC[C@]3(C)[C@H](CC[C@@H]4[C@@]5(C)CCC(N)C(C)(C)[C@@H]5CC[C@]43C)[C@@H]12` (stereo partly specified), the GI50 was 1.56 µM with MALME-3M melanoma, 2.49 µM in the test on HOP-62 NSCLC, 1.88 µM in the test with MDA-MB-231 breast and 1.77 µM with RXF 393 renal. The TGI amounted to 3.22 µM in the test on MALME-3M melanoma, 7 µM in the test on HOP-62 NSCLC, 3.69 µM in the test with MDA-MB-231 breast and 3.31 µM with RXF 393 renal.
For the compound `CC1OC(O[C@@H]2C=C3CC[C@@H]4[C@H](CC[C@]5(C)[C@@H](c6ccc(=O)oc6)CC[C@]45O)[C@@]3(C)CC2)C(O)C(O)C1O` (stereo partly specified), the TGI in the test with PC-3 prostate was 0.00558 µM; in the test on MALME-3M melanoma, 0.00238 µM and 0.00139 µM; in the test with MDA-MB-231 breast, 0.0136 µM; with RXF 393 renal it was 0.00199 µM; with SNB-19 CNS, 0.0198 µM and 0.0319 µM. The GI50 in the test with MDA-MB-231 breast was 0.000383 µM; with T-47D breast it was 0.000846 µM; in the test with RXF 393 renal, 0.00112 µM and 0.00894 µM.
For `C=C1C(=O)C23C(O)CC4C(C)(C)CCC(O)C4(C)C2CC(OC(C)=O)C1[C@H]3O` (stereo partly specified), the TGI in the test on PC-3 prostate is 23.7 µM; with MALME-3M melanoma, 9.42 µM; in the test with HOP-62 NSCLC, 28.2 µM; with MDA-MB-231 breast, 14.6 µM; in the test with HCT-15 colon, 6 µM; in the test with RXF 393 renal, 5.26 µM. The TGI turned out to be 30.9 µM in the test with SNB-19 CNS and 31.1 µM in the test on KM12 colon.
Take `N#Cc1sc2nc3c(c(-c4ccccc4)c2c1N)CCCC3`: the TGI with MALME-3M melanoma, in the test with HCT-15 colon, in the test with RXF 393 renal, in the test with SNB-19 CNS and in the test on KM12 colon was more than 100 µM each time.
`COc1ccc([C@@H]2[C@@H](Cl)C(=O)N2c2cc(OC)c(OC)c(OC)c2)cc1C`: the GI50 with PC-3 prostate is 0.0633 µM; in the test on MALME-3M melanoma, 17.8 µM; with HOP-62 NSCLC, 0.0535 µM; with MDA-MB-231 breast, 0.163 µM; in the test with HCT-15 colon, 0.0535 µM; in the test with RXF 393 renal it was 0.0313 µM. In addition, the GI50 was 0.0535 µM with SNB-19 CNS, 0.0435 µM in the test with MCF7 breast and 0.0419 µM in the test with KM12 colon. The TGI is more than 100 µM in the test with PC-3 prostate; 64.8 µM with MALME-3M melanoma; more than 100 µM with HOP-62 NSCLC; 42.1 µM with MDA-MB-231 breast; more than 100 µM in the test with HCT-15 colon; 20.6 µM with RXF 393 renal. The TGI was more than 100 µM with SNB-19 CNS, more than 100 µM in the test with MCF7 breast and 17.1 µM with KM12 colon.
Take `CCOC(=O)C(Oc1ccc(OC)c2c1C(=O)CCC2)c1ccccc1` (stereo unspecified): the TGI with MALME-3M melanoma, in the test with HOP-62 NSCLC, in the test with HCT-15 colon, with SNB-19 CNS and in the test with KM12 colon was more than 100 µM throughout.
For the compound `NN=C1/C(=C\c2ccccc2)CCC/C1=C/c1ccccc1`, the TGI with MALME-3M melanoma was 81.1 µM; with HOP-62 NSCLC it was more than 100 µM; in the test on HCT-15 colon, more than 100 µM; in the test with RXF 393 renal, more than 100 µM; in the test with SNB-19 CNS, more than 100 µM; in the test on KM12 colon, more than 100 µM.
Regarding `O=C1N(c2ccc(Cl)cc2)C(=O)C2(SC=NN2Cc2ccccc2)N1c1ccc(Cl)cc1` (stereo unspecified), the TGI with MALME-3M melanoma, with HOP-62 NSCLC, in the test with RXF 393 renal, in the test on SNB-19 CNS and in the test on KM12 colon was more than 100 µM throughout.
`COC(=O)CC(=O)OC1C[C@@H]2CCC3C(C)(C)CCC[C@]3(C)C23CC[C@@]1(C)C3` (stereo partly specified): the TGI with MALME-3M melanoma was 32.7 µM; in the test on HOP-62 NSCLC, 34.1 µM; with HCT-15 colon it was 36.1 µM; in the test on RXF 393 renal it was 37.2 µM; with SNB-19 CNS, 31.6 µM; in the test on KM12 colon, 33.9 µM.
In the case of `Cc1cc2c3ccccc3n3c2c2c1OC1(C)CCC(C2C1)C3(C)C` (stereo unspecified), the TGI in the test with MALME-3M melanoma, in the test on HOP-62 NSCLC, in the test on HCT-15 colon, in the test with SNB-19 CNS and with KM12 colon was more than 25 µM in each case.
As for `COC(OC)c1cccc2c1C(=O)CCC1(CC2)OCCCCO1`, the TGI in the test on MALME-3M melanoma, in the test on HOP-62 NSCLC, in the test on HCT-15 colon, with RXF 393 renal, in the test on SNB-19 CNS and in the test with KM12 colon was more than 100 µM each time.
For `CN(C(=O)C12C3C4C1C1C2C3C41C#N)C(C)(C)C` (stereo unspecified), the TGI with MALME-3M melanoma, in the test on HOP-62 NSCLC, in the test on SNB-19 CNS and in the test on KM12 colon was more than 100 µM each time.
Consider `CN1C/C(=C\c2ccccc2)C2=NN(C(N)=S)[C@H](c3ccccc3)[C@@H]2C1`, for which the TGI with MALME-3M melanoma, with HOP-62 NSCLC, in the test with HCT-15 colon, in the test on RXF 393 renal, in the test with SNB-19 CNS and in the test with KM12 colon was more than 100 µM each time.
